According to US20090155270A1, “CASPASE INHIBITORS, […] 3 INHIBITORS, FOR THE TREATMENT OF INFLUENZA” (priority 2003, published 2009):
Residues, ends and D or L forms follow the SMILES beside them. *: point of attachment. Cbz = O=C(OCc1ccccc1)*; CH2F = FC*

What was measured:
[1] = tested on: influenza virus ribonucleic protein complexes (RNP's); assay type: cell-based, influenza A virus
[2] = tested on: reconstituted RNP complexes (PB2, PB1, PA, NP); assay type: cell-based, influenza A virus
[3] = tested on: Raf/MEK/ERK signal pathway (ERK); assay type: cell-based, homo sapiens
[4] = tested on: influenza A virus strain fowl plague virus (FPV); assay type: cell-based
caspase-3 [5] = molecular target: caspase-3 (Homo sapiens, UniProt P42574)
[6] = tested on: influenza A virus strain Bratislava/79 (fowl plague virus, FPV); assay type: cell-based
caspase-3 [7] = molecular target: T1, caspase-3 (Canis lupus familiaris, UniProt Q8MKI5); assay type: cell-based
T1 construct: endogenous in cells; host or cells: MDCK cells infected with influenza A virus FPV
T1 sequence (Q8MKI5 29-175 limits assumed): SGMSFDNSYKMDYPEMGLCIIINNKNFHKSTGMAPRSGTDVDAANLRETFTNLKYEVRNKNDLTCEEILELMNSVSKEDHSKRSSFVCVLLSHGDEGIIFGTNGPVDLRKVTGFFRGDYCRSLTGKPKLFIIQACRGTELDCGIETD
T1 sequence (Q8MKI5 176-277 limits assumed): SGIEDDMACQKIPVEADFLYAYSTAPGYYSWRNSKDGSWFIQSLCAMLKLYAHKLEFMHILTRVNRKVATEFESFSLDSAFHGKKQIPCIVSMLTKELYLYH

[8] = tested on: early or late viral proteins (NS1, NP, M1); assay type: cell-based, influenza A virus
[9] = tested on: influenza A virus nucleoprotein (NP); assay type: cell-based
[10] = tested on: influenza A virus strain fowl plague virus (FPV); assay type: cell-based; remark: listed apart in the source
[11] = tested on: influenza A virus strain fowl plague virus (FPV); assay type: cell-based; remark: listed apart in the source

Molecule: N#CC(=C(/N)Sc1ccccc1N)/C(C#N)=C(\N)Sc1ccccc1N [U0126]
- migration of the RNP's out of the cell nucleus [1]: efficiently be inhibited
- prevention of staurosporine-induced bleeding of GFP and RNP complexes out of the cell nucleus [2]: not
- virus-induced activity of ERK [3]: efficiently inhibited
- effect on the virus multiplication (titers of descendant viruses) [4]: again reduced
- cleavage of the caspase substrate PARP (caspase-3 [5]): did not lead to a modified cleavage of PARP

Molecule: COC(=O)CC[C@H](NC(=O)[C@H](CC(=O)OC)NC(=O)OCc1ccccc1)C(=O)N[C@H](C(=O)N[C@@H](CC(=O)OC)C(=O)CF)C(C)C [Z-DEVD-FMK]
- effect on virus multiplication when present in the first two hours after infection and removed thereafter [6]: no significant effects
- inhibition of virus multiplication when added 4 hours after infection [6]: continued to effectively inhibit virus multiplication
- reduction in the influenza virus titers [6]: approx. 60%
- caspase inhibition, measured by the cleavage of the caspase substrate PARP, versus virus titer inhibition (caspase-3 [7]): precisely correlated
- effect on virus protein expression [8]: no significant effect
- migration of the RNP's out of the cell nucleus [1]: efficiently be inhibited
- prevention of staurosporine-induced bleeding of NP out of the cell nucleus [9]: can be prevented
- prevention of staurosporine-induced bleeding of GFP and RNP complexes out of the cell nucleus [2]: can be prevented
- virus-induced activity of ERK [3]: substantially identical
- effect on the virus multiplication (titers of descendant viruses) [4]: did not have any effect

Molecule: CC(NC(=O)[C@H](Cc1ccccc1)NC(=O)OCc1ccccc1)C(=O)CF (some centres unmarked) [Z-FA-FMK]
- effect on virus multiplication [6]: did not show any effect
- migration of the RNP's out of the cell nucleus [1]: not

Molecule: COC(=O)C[C@H](NC(=O)[C@H](C)NC(=O)[C@@H](NC(=O)OCc1ccccc1)C(C)C)C(=O)CF [Z-VAD-FMK] (Cbz-Val-Ala-Asp(OMe)-CH2F)
- inhibition of the virus multiplication [6]: same efficiency

Molecule: CCC(=C/[C@H](C)C/C=C/C(C)=C/[C@@H](C)C(=O)[C@@H](C)[C@H](O)[C@@H](C)C/C(C)=C/C(=O)O)/C=C/[C@@H]1OC(=O)C=C[C@@H]1C [leptomycin B]
- prevention of staurosporine-induced bleeding of NP out of the cell nucleus [9]: not

Molecule: CN[C@@H]1C[C@H]2O[C@@](C)([C@@H]1OC)n1c3ccccc3c3c4c(c5c6ccccc6n2c5c31)C(=O)NC4 [staurosporine]
- localization of the nucleoprotein after apoptosis induction [9]: distributed over the complete cell
- localization of GFP and RNP complexes after apoptosis induction [2]: distributed over the complete cell

B1: procaspase-3 (protein, UniProt P42574 1-277, looked up)
pro-form: MENTENSVDSKSIKNLEPKIIHGSESMDSGISLDNSYKMDYPEMGLCIIINNKNFHKSTGMTSRSGTDVDAANLRETFRNLKYEVRNKNDLTREEIVELMRDVSKEDHSKRSSFVCVLLSHGEEGIIFGTNGPVDLKKITNFFRGDRCRSLTGKPKLFIIQACRGTELDCGIETDSGVDDDMACHKIPVEADFLYAYSTAPGYYSWRNSKDGSWFIQSLCAMLKQYADKLEFMHILTRVNRKVATEFESFSFDATFHAKKQIPCIVSMLTKELYFYH
modifications: pro-form
- virus multiplication in transfected cells [10]: increased virus multiplication
- increase in the titers of descendant viruses [11]: 30 fold
